Results: patent publication US20240358692A1, “TREATMENT OF SCLERODERMA” (Aisa Pharma, Inc., priority 2023, published 2024)

Tested on: participants with SSc-RP
Assay: SHAQ - Standard Disability Index
Assay type: in vivo, human
From the text: The standard, validated, patient reported outcome measures tool for SSc patients, the Scleroderma Health Assessment Questionnaire (SHAQ), will be used to assess the participant qualify of life. Details are attached in the Appendix. The participant quality of life will be scored, and a disability index calculated for each questionnaire completed by the patient at Screening and each in-clinic visit. The absolute change in participant quality of life from baseline to the end of each dosing period will be calculated similar to frequency data as before.
The SHAQ is used to calculate a Disability Index to assess the participant qualify of life. The eight categories assessed by the Disability Index are 1) dressing and grooming, 2) arising, 3) eating, 4) walking, 5) hygiene, 6) reach, 7) grip, and 8) common daily activities. For each of these categories, patients report the amount of difficulty they have in performing two or three specific activities.
There are four possible responses for the Disability Index questions: • Without any difficulty=0 • With some difficulty=1 • With much difficulty=2 • Unable to do=3 • The highest score reported by the patient for any component question of the eight categories determines the score for that category. • If a component question is left blank or the response is too ambiguous to assign a score, then the score for that category is determined by the remaining completed question(s). • If all component questions are blank or if more than one answer is given, then follow up with the respondent is required. • If the respondent's mark is between the response columns, then move it to the closest one. If it's directly between the two, move it to the higher one.
This question results in a new set of category scores that are computed by adjusting the score for each category, if necessary, based on the patient's use of an aid or device or assistance for that category. If either devices and/or help from another person are checked for a category, the score is set to “2”, unless the score is already “3” (i.e., scores of “0” or “1” are increased to “2”). For example, if the highest score for the dressing category is “1”, and the patient says they use a device for dressing, the computed category score would be “2”. The sum of the computed categories scores is then calculated and divided by the number of categories answered. This gives a score in the 0 to 3 range.

[1] = Pooled Cilnidipine (N = 8), Day 12, PP Population, Part A
[2] = pooled Cilnidipine 10 mg and Cilnidipine 10 mg + Tadalafil 5 mg
[3] = pooled Cilnidipine 20 mg and Cilnidipine 20 mg + Tadalafil 5 mg
[4] = pooled cilnidipine 10 mg and 20 mg arms (combination: + tadalafil 5 mg)

SMILES: COCCOC(=O)C1=C(C)NC(C)=C(C(=O)OC/C=C/c2ccccc2)C1c1cccc([N+](=O)[O-])c1 (stereo not drawn) [Cilnidipine]
- SHAQ Standard Disability Index, In-Clinic Visit (Day 12), Mean (SD) [1]: 0.469 (0.5853)
- SHAQ Standard Disability Index, Percent Change from Baseline, Mean (SD) [1]: −16.00 (34.189) %
- % change in Standard Disability Index (Pooled Cilnidipine (n = 7), SHAQ, mITT Part A): −25%
- % Δ from baseline, standard disability mean (Pooled cilnidipine (n=4)): −25%
- Standard Disability Index Change from Baseline Max [2]: 0.38
- Standard Disability Index Change from Baseline Mean [2]: −0.021
- Standard Disability Index Change from Baseline Median [2]: 0.000
- Standard Disability Index Change from Baseline Min [2]: −0.31,
- Standard Disability Index Change from Baseline Q3 [2]: 0.000
- Standard Disability Index Day 12 Max [2]: 1.50
- Standard Disability Index Day 12 Min [2]: 0.00,
- Standard Disability Index Day 12 Q1 [2]: 0.188,
- Standard Disability Index Day 12 Q3 [2]: 1.125
- Standard Disability Index Percent Change from Baseline Max [2]: 150.0%
- Standard Disability Index Percent Change from Baseline Mean [2]: 7.50%
- Standard Disability Index Percent Change from Baseline Median [2]: 0.00%
- Standard Disability Index Percent Change from Baseline Min [2]: −62.5, %
- Standard Disability Index Percent Change from Baseline Q1 [2]: −25.00, %
- Standard Disability Index Percent Change from Baseline Q3 [2]: 0.00%
- Standard Disability Index Change from Baseline Max [3]: 0.13
- Standard Disability Index Change from Baseline Mean [3]: −0.092
- Standard Disability Index Change from Baseline Median [3]: 0.000
- Standard Disability Index Change from Baseline Min [3]: −0.52,
- Standard Disability Index Change from Baseline Q1 [3]: −0.250,
- Standard Disability Index Day 12 Max [3]: 1.75
- Standard Disability Index Day 12 Median [3]: 0.250
- Standard Disability Index Day 12 Min [3]: 0.00,
- Standard Disability Index Day 12 Q1 [3]: 0.000,
- Standard Disability Index Day 12 Q3 [3]: 0.857
- Standard Disability Index Percent Change from Baseline Max [3]: 100.0%
- Standard Disability Index Percent Change from Baseline Median [3]: −33.33%
- Standard Disability Index Percent Change from Baseline Min [3]: −66.7, %
- Standard Disability Index Percent Change from Baseline Q1 [3]: −37.66, %
- Standard Disability Index Percent Change from Baseline Q3 [3]: 7.69%
- Standard Disability Index Change from Baseline Max [4]: 0.00
- Standard Disability Index Change from Baseline Mean [4]: −0.054
- Standard Disability Index Change from Baseline Median [4]: 0.000
- Standard Disability Index Change from Baseline Min [4]: −0.25,
- Standard Disability Index Change from Baseline Q3 [4]: 0.000
- Standard Disability Index Day 12 Max [4]: 1.50
- Standard Disability Index Day 12 Median [4]: 0.125
- Standard Disability Index Day 12 Min [4]: 0.00,
- Standard Disability Index Day 12 Q1 [4]: 0.000,
- Standard Disability Index Percent Change from Baseline Max [4]: 0.0%
- Standard Disability Index Percent Change from Baseline Mean [4]: −25.00%
- Standard Disability Index Percent Change from Baseline Min [4]: −66.7, %
- Standard Disability Index Percent Change from Baseline Q1 [4]: −50.00, %
- Standard Disability Index Percent Change from Baseline Q3 [4]: 0.00%
